Patent US20260234188A1, “CHEMOKINE-BINDING PEPTIDES” (Oxford University Innovation Limited, priority 2022, published 2026)
Entries after “also recorded” stand apart in the source; their conditions may differ. Ends that are not written are not given here. Peptide text beside a SMILES is read from it.

How the values were obtained:
CXCL11 = biological target: T1, CXCL11 (Homo sapiens, UniProt O14625); assay: CXCL11-induced activated T-cell migration, transwell assay; assay type: cell-based; conditions: HD2 mutant peptides 10 μM, chemokine at EC80
T1 construct: purchased Peprotech
T1 sequence (O14625 22-94): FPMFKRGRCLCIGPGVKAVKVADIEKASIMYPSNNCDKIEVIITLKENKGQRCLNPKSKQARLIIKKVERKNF
Experimental: FIG. 2. […] BK1.2 is described in (Darlot, 2020). […] Chemokines used are indicated by the name, followed in parenthesis by the supplier code (P in supplier code indicates Peprotech). […] All experiments were performed at EC80 doses of indicated chemokine. Data are shown as box-whisker plots of three technical and three biological replicates. Statistically significant differences (compared to control, indicated by #), using Dunnett's test with correction for multiple comparisons, are indicated by asterisks: ****=P≤0.0001, ***=P≤0.001, **=P≤0.01, *=P≤0.05.
Briefly, cell migration assays use THP1 cells (human monocyte) and primary human buffy coat white cells (consisting of neutrophil granulocytes, monocytes, and lymphocytes), and activated T-cells. THP1 cells and primary monocytes respond to CCL2, CCL3, CCL5, CCL8 and CXCL4, granulocytes to CXCL1 and CXCL8, activated T-cells to CXCL9/10/11. Assays are performed in 96-well Boyden chambers, and migrated cells counted and characterized using and ATTUNE Flow Cytometer as described. Triplicate assays are performed at the EC80 dose of each chemokine at 10 μM peptide concentration.
The J:CXCR1 cell line was generated by transfecting Jurkat cells by electroporation with PvuI-linearized plasmid D1398 and selecting with blasticidin (Sigma-Aldrich, Cat #203350, […]). […] J:CXCR1 cells were cultured in RPMI-1640 media (Gibco), supplemented with 10% FBS and 5 mM L-Glutamine with blasticidin. For J:CXCR1 migration assays, 300,000 cells/well were added to the top chamber of a 3 μm Transwell insert (Corning) in 50 μL of migration media (RPMI-1640, 0.5% FBS, 4 mM L-Glutamine, 0.05% DMSO). The bottom chamber contained 150 μL of chemokine, with or without peptide. Cells were migrated at 37° C. in 5% CO2 for 4 hours. The plate was incubated on a shaking platform for 10 minutes, 800 rpm, at 37° C., and 150 μL from the bottom of the plate transferred into a U-bottom plate containing 50 μL of migration media. Cell counts were determined by Attune NxT Flow Cytometer Plate Reader (ThermoFisher), based on cell size parameters FSC-H/SSC-H. Experiments were performed in 3 technical and 3 biological replicates. THP-1 migration assays were carried out using methods known in the art. Activated T-cell assays were carried out using methods known in the art, with the following modifications in the isolation process. Peripheral blood cells were obtained from leucocyte cones (NHS Blood Transfusion Services), following which, T-cells were isolated using two rounds of human CD8+ T-cell isolation kit (480011, BioLegend). At day 10 after activation, T-cells were frozen at 20 E6 cells/ml in TexMACS medium supplemented with 10% DMSO (D2650, Sigma) in liquid nitrogen. Prior to use, activated T-cells were recovered for 24 hours in TexMACs medium at 0.3 E6 cells/ml and incubated at 37° C. in 5% CO2. Chemokine sources are described in Supplementary information Table 3. Statistical significances between control experimental groups was evaluated using Dunnett's test. IC50 experiments were performed at the EC80 dose of chemokine. EC80 was calculated by fitting a chemokine dose-response curve with 3 parameters (fixing the top to 100%). IC50 was calculated by fitting an inhibitor response curve with 4 parameters.

[1] = test system: panel of 24 biotinylated chemokines; assay: Phage-display screen of HD2 NNK saturation mutagenesis library; assay type: binding, human; conditions: for Chemokines Bound log2E 1-5 / Chemokines Bound log2E > 5: HD2 saturation mutants, chemokines on streptavidin beads, UniProt entry names

Compound | chemotaxis compared with the parental HD2 peptide (CXCL11) | Chemokines Bound log2E 1-5 [1] | Chemokines Bound log2E > 5 [1] | mean log 2 E compared to parental HD2 ([1]; over XC (CXC/CX3C) chemokines) | mean log 2 E compared to parental HD2 ([1]; over all chemokines) | peak log 2 E ([1]; best mutation at each residue)
EEDDWTAYAPLTCYFT-NH2 [HD2_W5, EEDDWTAYAPLTCYFT] | significant reduction in chemotaxis | CCL1, CCL11, CCL15, CCL17,; also recorded: CCL18, CCL19, CCL2, CCL22,; also recorded: CCL28, CCL3, CCL4, X3CL1,; also recorded: CXL11, SDF1, IL8 | CXL10, CXL13 | significant improvement | significant improvement | 
CC(C)C[C@H](NC(=O)[C@@H]1CCCN1C(=O)[C@H](C)NC(=O)[C@H](Cc1ccc(O)cc1)NC(=O)[C@H](C)NC(=O)[C@@H](NC(=O)[C@H](Cc1ccc(O)cc1)NC(=O)[C@H](CC(=O)O)NC(=O)[C@H](CC(=O)O)NC(=O)[C@H](CCC(=O)O)NC(=O)[C@@H](N)CCC(=O)O)[C@@H](C)O)C(=O)N[C@H](C(=O)N[C@@H](CS)C(=O)N[C@@H](Cc1ccc(O)cc1)C(=O)N[C@@H](Cc1ccccc1)C(=O)N[C@@H](CS)C(N)=O)[C@@H](C)O [HD2_C16, EEDDYTAYAPLTCYFC] (H-EEDDYTAYAPLTCYFC-NH2; N-terminus assumed) | significant reduction in chemotaxis | CCL1, X3CL1, CXL10, CXL11,; also recorded: CXL14 | IL8 |  |  | highest peak log 2 E at that residue
EEDDYTAYWPLTCYFT [A9W] | significant reduction in chemotaxis |  |  |  |  | 
EEDDYWAYAPLTCYFT [HD2_W6] | significant reduction in chemotaxis | CCL1, CCL17, CCL18, CCL2,; also recorded: CCL20, CCL3, CCL4, IL8 | CCL19, CCL25,; also recorded: CCL28, X3CL1,; also recorded: CXL10, CXL11,; also recorded: SDF1, CXL13,; also recorded: CXL14 | significant improvement |  | 
